Measurements from ChEMBL document CHEMBL1135290, “Synthesis of sub-micromolar inhibitors of MraY by exploring the region originally occupied by the diazepanone ring in the liposidomycin structure” (Bioorg Med Chem Lett, 2002).

How the values were obtained:
Staphylococcus aureus = experiment: Tested in vitro for antibacterial activity against Staphylococcus aureus using micro-broth dilution method; assay type: functional
Escherichia coli = experiment: Tested in vitro for antibacterial activity against Escherichia coli using micro-broth dilution method; assay type: functional
[1] = Inhibitory activity against Translocase I
Enterococcus faecium = experiment: Tested in vitro for antibacterial activity against Enterococcus faecium using micro-broth dilution method; assay type: functional
Streptococcus pyogenes = experiment: Tested in vitro for antibacterial activity against Streptococcus pyogenes using micro-broth dilution method; assay type: functional

MIC (Staphylococcus aureus) [µg/mL]	MIC (Escherichia coli) [µg/mL]	IC50 [1] [nM]	MIC (Enterococcus faecium) [µg/mL]	MIC (Streptococcus pyogenes) [µg/mL]	SMILES
> 80	> 80	820	80	> 80	CCCCCCCCNC[C@H](O[C@@H]1O[C@H](CN)[C@@H](O)[C@H]1O)[C@@H]1C[C@@H](O)[C@H](n2ccc(=O)[nH]c2=O)O1.O=C(O)C(F)(F)F
40	40	330	80	20	CCCCCCCCCCNC[C@H](O[C@@H]1O[C@H](CN)[C@@H](O)[C@H]1O)[C@@H]1C[C@@H](O)[C@H](n2ccc(=O)[nH]c2=O)O1.O=C(O)C(F)(F)F
> 80	> 80	900	> 80	> 80	CCCCCNC[C@H](O[C@@H]1O[C@H](CN)[C@@H](O)[C@H]1O)[C@@H]1C[C@@H](O)[C@H](n2ccc(=O)[nH]c2=O)O1.O=C(O)C(F)(F)F
5	2.5	700	20	2.5	CCCCCCCCCCCCNC[C@H](O[C@@H]1O[C@H](CN)[C@@H](O)[C@H]1O)[C@@H]1C[C@@H](O)[C@H](n2ccc(=O)[nH]c2=O)O1.O=C(O)C(F)(F)F
